Counter-ions that a name gives are not always drawn.

By inhibition is commonly meant the relative decrease from the control value, in per cent.

The test system of assay [1] is TNF production in mouse peritoneal macrophages. As to the kind of experiment: Inhibitory effect on TNF production in mouse peritoneal macrophages (50 μM and 100 μM). The assay is classed as cell-based, mouse (BALB/c). The following applies: Peritoneal macrophage, read-out: Inhibition of TNF Production or secretion; for inhibition at 50 µM: 50 μM compound; for inhibition at 100 µM: 100 μM compound. The procedure:
(§1) BALB/c mice (5 weeks old, female, Charles River Japan) were intraperitoneally injected with 1 ml of 3% thioglycollate broth. After 4 days, the mice were sacrificed. Peritoneal exudated cells (PECs) were collected from the peritoneal cavity by washing with minimum essential medium (hereinafter abbreviated as MEM, manufactured by Handai Biseibutubyo Kenkyukai, Osaka, Japan) containing 5 U/ml heparin and 1% fetal bovine serum (FBS, manufactured by GIBCO Laboratories Inc.). PECs were washed three times with MEM, suspended with MEM containing 10% FBS. After the viable cells were counted by exclusion of trypan blue dye, the suspension was adjusted at the final concentration of 2×10^6 cells/ml with MEM containing 10% FBS and seeded into a 96-well microplate (Costar, Cambridge, Mass., USA) at 2×10^5 cells/100 μl/well. The PECs were incubated for an hour at 37° C. in a humidified 5% CO2 incubator, and were washed twice with MEM warmed at 37° C. to remove non-adherent cells. Residual adherent cells were used as peritoneal macrophages. After the washing above, 50 μl each/well of MEM containing 10% FBS was added to each well and provided for use in the following experiment.
The powdery compound of the present invention was dissolved in dimethylsulfoxide in a concentration of 30 mM. […] In the peritoneal macrophages obtained above, 50 μl each of the dilution was added to each well to make the total volume 100 μl. Thereafter 100 μl each of lipopolysaccharide (hereinafter abbreviated as LPS, E. coli 0111B4, manufactured by DIFCO, USA) was added to each well in the final concentration of 10 μg/ml. After the cells were incubated at 37° C. for 18 hours in a humidified 5% CO2 incubator, 25 μl of the supernatant in each well was collected.
(§2) The TNF activity in the supernatant collected was determined by bioassay using TNF-sensitive mouse fibroblast cell line L929 cells. That is, 100 μl each of MEM containing 10% FBS was added to each well of a 96-well microplate; using the resulting mixture, 25 μl of the collected supernatant was diluted to 5-fold dilution to final concentrations (concentrations after the following addition of L929 cell suspension) of 10%, 2%, 0.4% and 0.08%.
L929 cells were then suspended (4×10^5 cells/ml) in MEM containing 10% FBS and 1 μg/ml actinomycin D (Sigma Co.) and 100 μl each of the suspension was added to each well of the above microplate at 4×10^4 cells/well and cultured at 37° C. in a humidified 50% CO2. The viable cells were counted by partial modification of the MTT method reported in Monosann et al., T., J. Immunol. Method, 65, 55-63, 1983. The modified MTT method comprises the following steps. One mg/ml of 3-(4,5-dimethylthiazol-2-yl)-2,5-diphenyltetrazolium bromide (hereinafter abbreviated as MTT, manufactured by Sigma Co.) was dissolved in MEM, and 50 μl each of the solution was added to each well of the microplate above. […] After shaking the 96-well microplate for a few minutes, the absorbance in each well was measured with a microplate reader (Corona Co.) at an absorption wavelength of 550 nm. The absorbance correlated to the count of the viable L929 cells and represented the TNF activity in the supernatant. The TNF activity was determined in terms of unit (U)/ml from the calibration curve of absorbance for the TNF activity obtained using mouse recombinant TNF α (TNF-M, manufactured by Genzyme Co.) as a standard. The activity of inhibiting TNF production of each compound, was determined by the following equation. […]

Assay [2] has as its system TNF production or secretion in mouse peritoneal macrophages. As to the kind of experiment: Inhibitory effect on TNF production or secretion in mouse peritoneal macrophages (30 μM). It is filed as cell-based, mouse (BALB/c). The note with it: 30 μM compound, LPS 10 μg/ml, 18 hours, TNF by L929 bioassay; for inhibition at 30 µM: Mus musculus. As to the method: Inhibitory effect on TNF production or secretion in mouse peritoneal macrophages (In case drug concentration is 30 μM)
as §1
The powdery compound of the present invention was dissolved in dimethylsulfoxide in a concentration of 30 mM. The solution was then diluted with MEM containing 10% FBS in the final concentration of 30 μM. In the peritoneal macrophages obtained above, 50 μl each of the dilution was added to each well to make the total volume 100 μl. Thereafter 100 μl each of lipopolysaccharide (hereinafter abbreviated as LPS, E. coli 0111B4, manufactured by DIFCO, USA) was added to each well in the final concentration of 10 μg/ml. After the cells were incubated at 37° C. for 18 hours in a humidified 5% CO2 incubator, 25 μl of the supernatant in each well was collected.
as §2
L929 cells were then suspended (4×10^5 cells/ml) in MEM containing 10% FBS and 1 μg/ml actinomycin D (Sigma Co.) and 100 μl each of the suspension was added to each well of the above microplate at 4×10^4 cells/well and cultured at 37° C. in a humidified 50% CO2. The viable cells were counted by partial modification of the MTT method reported in Monosann et al., T., J. Immunol. Method, 65, 55-63, 1983. The modified MTT method comprises the following steps. One mg/ml of 3-(4,5-dimethylthiazol-2-yl)-2,5-diphenyltetrazolium bromide (hereinafter abbreviated as MTT, manufactured by Sigma Co.) was dissolved in MEM, and 50 μl each of the solution was added to each well of the microplate above. After incubating the microplate for further 6 hours, the supernatant was discarded and 100 μl of 0.004N HCl-isopropyl alcohol and then 10 μl of 0.01% sodium laurylsulfate aqueous solution was added to each well. After shaking the 96-well microplate for a few minutes, the absorbance in each well was measured with a microplate reader (Corona Co.) at an absorption wavelength of 550 nm. The absorbance correlated to the count of the viable L929 cells and represented the TNF activity in the supernatant. The TNF activity was determined in terms of unit (U)/ml from the calibration curve of absorbance for the TNF activity obtained using mouse recombinant TNF α (TNF-M, manufactured by Genzyme Co.) as a standard. The activity of inhibiting TNF production of each compound, was determined by the following equation.
Inhibition of TNF production or secretion (%)=(1-TNF activity in the […]

Assay [3] concerns experimental allergic encephalomyelitis induced on an animal model. The note with it: cited from earlier work.
Assay [4] has as its system HIV-1. The note with it: cited from earlier work.
The test system of assay [5] is endotoxin-shocked mice. The note with it: mouse, in vivo; cited from earlier work.
Assay [6] concerns TNF. The following applies: cited from earlier work.
For assay [7], the system named is cancer patients. The note with it: human, in vivo; cited from earlier work.

As for `CCCCN1C2Cc3cc4c(cc3C1Cc1cc3c(cc12)OCO3)OCO4` [Example 30], in assay [1], the inhibition at 50 µM turned out to be 41% and the inhibition at 100 µM was 78%. In assay [2], the inhibition at 30 µM was -37%.

For the compound `NCCCN1C2Cc3cc4c(cc3C1Cc1cc3c(cc12)OCO3)OCO4` [Example 49, 15-(3-aminopropyl)-5,6,12,13-tetrahydrocycloocta[1,2-f:5,6-f']bis[1,S]benzodioxol-5,12-imine], in assay [1], the inhibition at 50 µM was determined as 21%. Also, the inhibition at 30 µM in assay [2] was -4%.

Take `CC(=O)CCCCn1c(=O)c2c(ncn2C)n(C)c1=O` [Pentoxifylline]: the “prevention of experimental allergic encephalomyelitis” value in assay [3] was “activity of preventing experimental allergic encephalomyelitis induced on an animal model”. In addition, the “prevention of HIV-1 replication” value in assay [4] was “activity of preventing HIV-1 replication”. Further, the “prevention of death in endotoxin-shocked mice” value in assay [5] is “activity of preventing death in endotoxin-shocked mice”. For the same compound, the TNF inhibitory activity result in assay [6] was “showing an activity of inhibiting TNF”. Moreover, the “sense of well-being / weight loss in cancer patients” value in assay [7] is “activity of improving the sense of well-being or preventing a weight loss in cancer patients”.

For `CCCN1C2Cc3cc4c(cc3C1Cc1cc3c(cc12)OCO3)OCO4` [Example 29], in assay [1], the inhibition at 100 µM came out at 81%. Moreover, the inhibition at 30 µM in assay [2] was 31%.

`CCCCCC(=O)N1C2Cc3cc4c(cc3C1Cc1cc3c(cc12)OCO3)OCO4` [Example 19]: the inhibition at 100 µM in assay [1] came to 51%. In addition, the inhibition at 30 µM in assay [2] was determined as 16%.

For “isomeric mixture of 16-acetyl-2-aminomethyl-6,7,13,14-tetrahydro-[1,3]benzodioxolo[5,6-f]cycloocta[1,2-g]-1,4-benzodioxan-6,13-imine and 16-acetyl-3-aminomethyl-6,7,13,14-tetrahydro-[1,3]benzodioxolo[5,6-f]cycloocta[1,2-g]-1,4-benzodioxan-6,13-imine [Example 9]”, the “Inhibition of TNF Production or Secretion” value in assay [2] came out at 69%.

In the case of `O=C(O)C(=O)N1C2Cc3cc4c(cc3C1Cc1cc3c(cc12)OCO3)OCO4` [Example 46, 5,6,12,13-tetrahydro-15-oxalocycloocta[1,2-f:5,6-f']bis[1,3]benzodioxol-5,12-imine], the inhibition at 30 µM in assay [2] was 6%.

As to `NCC(=O)N1C2Cc3cc4c(cc3C1Cc1cc3c(cc12)OCO3)OCO4` [Example 52, 15-glycyl-5,6,12,13-tetrahydrocycloocta[1,2-f:5,6-f']bis[1,3]benzodioxol-5,12-imine], the inhibition at 30 µM in assay [2] came out at 20%.

`c1coc(CN2C3Cc4cc5c(cc4C2Cc2cc4c(cc23)OCO4)OCO5)c1` [Example 3, 15-furfuryl-5,6,12,13-tetrahydrocycloocta[1,2-f:5,6-f']bis[1,3]benzodioxol-5,12-imine hydrochloride]: in assay [2], the inhibition at 30 µM was -99%.

Regarding “mixture of 17-acetyl-6,7,14,15-tetrahydro-2-hydroxymethylcycloocta[1,2-g:5,6-g']bis[1,4]benzodioxan-6,14-imine and 17-acetyl-6,7,14,15-tetrahydro-3-hydroxymethylcycloocta[1,2-g: 5,6-g']bis[1,4]benzodioxan-6,14-imine [Example 7]”, the “Inhibition of TNF Production or Secretion” value in assay [2] worked out at 65%.

For the compound `CCCCCOC(=O)N1C2Cc3cc4c(cc3C1Cc1cc3c(cc12)OCO3)OCO4` [Example 25], in assay [2], the inhibition at 30 µM stood at 46%.

Regarding `NCCC(=O)N1C2Cc3cc4c(cc3C1Cc1cc3c(cc12)OCO3)OCO4` [Example 53, 15-(3-aminopropionyl)-5,6,12,13-tetrahydrocycloocta[1,2-f:5,6-f']bis[1,3]benzodioxol-5,12-imine], the inhibition at 30 µM in assay [2] was -1%.

With `CC(=O)N1C2Cc3cc4c(cc3C1Cc1cc3c(cc12)OCCO3)OCCO4` [Example 5, 17-acetyl-6,7,14,15-tetrahydrocycloocta[1,2-g:5,6-g']bis[1,4]benzodioxan-6,14-imine], in assay [2], the inhibition at 30 µM amounted to 64%.

(Values after patent publication US5648359A, “Tumor necrosis factor production inhibitors” (Sumitomo Pharmaceuticals Company, Limited, priority 1993, dated 1997).)
